Results taken from US11919897B2, “Inhibitors of human immunodeficiency virus replication” (VIIV HEALTHCARE UK (No. 5) LIMITED, priority 2018, dated 2024).
Read-outs that look alike come from different tables or passages of the source.

Tests used:
Type in all cases: cell-based
[1] = system: recombinant NL4-3 virus (nef section replaced with Renilla luciferase gene) in MT-2 cells; assay: HIV cell culture assay (antiviral activity, luciferase readout in infected MT-2 cells)
Procedure: HIV cell culture assay-MT-2 cells, 293T cells and the proviral DNA clone of NL4-3 virus were obtained from the NIH AIDS Research and Reference Reagent Program. MT-2 cells were propagated in RPMI 1640 media supplemented with 10% heat inactivated fetal bovine serum (FBS), 100 μg/ml penicillin G and up to 100 units/mL streptomycin. The 293T cells were propagated in DMEM media supplemented with 10% heat inactivated FBS, 100 μg/mL penicillin G and 100 μg/mL streptomycin. A recombinant NL4-3 proviral clone, in which a section of the nef gene was replaced with the Renilla luciferase gene, was used to make the reference virus used in these studies. The recombinant virus was prepared through transfection of the recombinant NL4-3 proviral clone into 293T cells using Transit-293 Transfection Reagent from Minis Bio LLC (Madison, WI). Supernatent was harvested after 2-3 days and the amount of virus present was titered in MT-2 cells using luciferase enzyme activity as a marker by measuring luciferase enzyme activity. Luciferase was quantitated using the EnduRen Live Cell Substrate from Promega (Madison, WI). Antiviral activities of compounds toward the recombinant virus were quantified by measuring luciferase activity in MT-2 cells infected for 4-5 days with the recombinant virus in the presence of serial dilutions of the compound.
The 50% effective concentration (EC50) was calculated by using the exponential form of the median effect equation where (Fa)=1/[1+(ED50/drug conc.)m] (Johnson V A, Byington R T. Infectivity Assay. In Techniques in HIV Research. ed. Aldovini A, Walker B D. 71-76. New York: Stockton Press. 1990).

uninfected MT2 cells = assay: Compound cytotoxicity, XTT-based colorimetric assay; conditions: day 4, XTT assay
Procedure: (§1) Compound cytotoxicity and the corresponding CC50 values were determined using the same protocol as described in the antiviral assay except that uninfected cells were used. Cytotoxicity was assessed on day 4 in uninfected MT2 cells by using an XTT (2,3-bis[2-Methoxy-4-nitro-5-sulfophenyl]-2H-tetrazolium-5-carboxyanilide inner salt)-based colorimetric assay (Sigma-Aldrich, St Louis, Mo.).

[2] = as above; conditions: human; uninfected MT2 cells, day 4, XTT assay
Procedure: as §1

[3] = MT-2 cells infected for 4-5 days with recombinant NL4-3 Renilla luciferase virus, luciferase activity, read-out: EC50

Row | Compound | EC50 [1, 3] [nM] | CC50 (uninfected MT2 cells) [nM] | EC50 ([1]; Renilla, NL43) [nM] | CC50 at 4 days [2] [nM]
1 | N—((S)-1-((3P)-3-(4-chloro-1-(2,2-difluoroethyl)-3-(methylsulfonamido)-1H-indazol-7-yl)-7-(2-cyclopropylethoxy)-4-oxo-3,4-dihydropyrido[2,3-d]pyrimidin-2-yl)-2-(3,5-difluorophenyl)ethyl)-2-((3bS,4aR)-3-(difluoromethyl)-5,5-difluoro-3b,4,4a,5-tetrahydro-1H-cyclopropa[3,4]cyclopenta[1,2-c]pyrazol-1-yl)acetamide [Example 22] | 0.29 | > 500 |  | 
2 | N—((S)-1-((3P)-3-(4-chloro-1-methyl-3-(methylsulfonamido)-1H-indazol-7-yl)-4-oxo-7-(pyrimidin-2-ylmethoxy)-3,4-dihydropyrido[2,3-d]pyrimidin-2-yl)-2-(3,5-difluorophenyl)ethyl)-2-((3bS,4aR)-3-(difluoromethyl)-5,5-difluoro-3b,4,4a,5-tetrahydro-1H-cyclopropa[3,4]cyclopenta[1,2-c]pyrazol-1-yl)acetamide [Example 9] | 0.03 | > 1000 |  | 
3 | Cn1nc(NS(C)(=O)=O)c2c(Cl)ccc(-n3c([C@H](Cc4cc(F)cc(F)c4)NC(=O)Cn4nc(C(F)F)c5c4C(F)(F)[C@@H]4C[C@H]54)nc4nc(OCCN5CCCCC5)ccc4c3=O)c21 (atropisomer, axis not shown; (P)) [Example 11, N—((S)-1-((3P)-3-(4-chloro-1-methyl-3-(methylsulfonamido)-1H-indazol-7-yl)-4-oxo-7-(2-(piperidin-1-yl)ethoxy)-3,4-dihydropyrido[2,3-d]pyrimidin-2-yl)-2-(3,5-difluorophenyl)ethyl)-2-((3bS,4aR)-3-(difluoromethyl)-5,5-difluoro-3b,4,4a,5-tetrahydro-1H-cyclopropa[3,4]cyclopenta[1,2-c]pyrazol-1-yl)acetamide] |  |  | 0.49 | > 1000
4 | CCCCOCCOc1ccc2c(=O)n(-c3ccc(Cl)c4c(NS(C)(=O)=O)nn(C)c34)c([C@H](Cc3cc(F)cc(F)c3)NC(=O)Cn3nc(C(F)F)c4c3C(F)(F)[C@@H]3C[C@H]43)nc2n1 (atropisomer, axis not shown; (P)) [Example 27, N—((S)-1-(7-(2-butoxyethoxy)-(3P)-3-(4-chloro-1-methyl-3-(methylsulfonamido)-1H-indazol-7-yl)-4-oxo-3,4-dihydropyrido[2,3-d]pyrimidin-2-yl)-2-(3,5-difluorophenyl)ethyl)-2-((3bS,4aR)-3-(difluoromethyl)-5,5-difluoro-3b,4,4a,5-tetrahydro-1H-cyclopropa[3,4]cyclopenta[1,2-c]pyrazol-1-yl)acetamide] |  |  | 0.041 | > 100
5 | Cn1nc(NS(C)(=O)=O)c2c(Cl)ccc(-n3c([C@H](Cc4cc(F)cc(F)c4)NC(=O)Cn4nc(C(F)F)c5c4C(F)(F)[C@@H]4C[C@H]54)nc4nc(OCCC(C)(C)C)ccc4c3=O)c21 (atropisomer, axis not shown; (P)) [Example 3, N—((S)-1-((3P)-3-(4-chloro-1-methyl-3-(methylsulfonamido)-1H-indazol-7-yl)-7-(3,3-dimethylbutoxy)-4-oxo-3,4-dihydropyrido[2,3-d]pyrimidin-2-yl)-2-(3,5-difluorophenyl)ethyl)-2-((3bS,4aR)-3-(difluoromethyl)-5,5-difluoro-3b,4,4a,5-tetrahydro-1H-cyclopropa[3,4]cyclopenta[1,2-c]pyrazol-1-yl)acetamide] |  |  | 0.06 | > 1000
6 | Cn1nc(NS(C)(=O)=O)c2c(Cl)ccc(-n3c([C@H](Cc4cc(F)cc(F)c4)NC(=O)Cn4nc(C(F)F)c5c4C(F)(F)[C@@H]4C[C@H]54)nc4nc(OCCC5CC5)ccc4c3=O)c21 (atropisomer, axis not shown; (P)) [Example 24, N—((S)-1-((3P)-3-(4-chloro-1-methyl-3-(methylsulfonamido)-1H-indazol-7-yl)-7-(2-cyclopropylethoxy)-4-oxo-3,4-dihydropyrido[2,3-d]pyrimidin-2-yl)-2-(3,5-difluorophenyl)ethyl)-2-((3bS,4aR)-3-(difluoromethyl)-5,5-difluoro-3b,4,4a,5-tetrahydro-1H-cyclopropa[3,4]cyclopenta[1,2-c]pyrazol-1-yl)acetamide] |  |  | 0.051 | > 500
7 | CC(C)OCCOc1ccc2c(=O)n(-c3ccc(Cl)c4c(NS(C)(=O)=O)nn(C)c34)c([C@H](Cc3cc(F)cc(F)c3)NC(=O)Cn3nc(C(F)F)c4c3C(F)(F)[C@@H]3C[C@H]43)nc2n1 (atropisomer, axis not shown; (P)) [Example 4, N—((S)-1-((3P)-3-(4-chloro-1-methyl-3-(methylsulfonamido)-1H-indazol-7-yl)-7-(2-isopropoxyethoxy)-4-oxo-3,4-dihydropyrido[2,3-d]pyrimidin-2-yl)-2-(3,5-difluorophenyl)ethyl)-2-((3bS,4aR)-3-(difluoromethyl)-5,5-difluoro-3b,4,4a,5-tetrahydro-1H-cyclopropa[3,4]cyclopenta[1,2-c]pyrazol-1-yl)acetamide] |  |  | < 0.05 | > 1000
8 | Cn1nc(NS(C)(=O)=O)c2c(Cl)ccc(-n3c([C@H](Cc4cc(F)cc(F)c4)NC(=O)Cn4nc(C(F)F)c5c4C(F)(F)[C@@H]4C[C@H]54)nc4nc(OCCc5nccs5)ccc4c3=O)c21 (atropisomer, axis not shown; (P)) [Example 18, N—((S)-1-((3P)-3-(4-chloro-1-methyl-3-(methylsulfonamido)-1H-indazol-7-yl)-4-oxo-7-(2-(thiazol-2-yl)ethoxy)-3,4-dihydropyrido[2,3-d]pyrimidin-2-yl)-2-(3,5-difluorophenyl)ethyl)-2-((3bS,4aR)-3-(difluoromethyl)-5,5-difluoro-3b,4,4a,5-tetrahydro-1H-cyclopropa[3,4]cyclopenta[1,2-c]pyrazol-1-yl)acetamide] |  |  | 0.038 | > 500
9 | CO[C@H](C)COc1ccc2c(=O)n(-c3ccc(Cl)c4c(NS(C)(=O)=O)nn(C)c34)c([C@H](Cc3cc(F)cc(F)c3)NC(=O)Cn3nc(C(F)F)c4c3C(F)(F)[C@@H]3C[C@H]43)nc2n1 [Example 31, N—((S)-1-((3P)-3-(4-chloro-1-methyl-3-(methylsulfonamido)-1H-indazol-7-yl)-7-((R)-2-methoxypropoxy)-4-oxo-3,4-dihydropyrido[2,3-d]pyrimidin-2-yl)-2-(3,5-difluorophenyl)ethyl)-2-((3bS,4aR)-3-(difluoromethyl)-5,5-difluoro-3b,4,4a,5-tetrahydro-1H-cyclopropa[3,4]cyclopenta[1,2-c]pyrazol-1-yl)acetamide] |  |  | 0.019 | > 100
10 | Cn1nc(NS(C)(=O)=O)c2c(Cl)ccc(-n3c([C@H](Cc4cc(F)cc(F)c4)NC(=O)Cn4nc(C(F)F)c5c4C(F)(F)[C@@H]4C[C@H]54)nc4nc(OCCCS(C)(=O)=O)ccc4c3=O)c21 (atropisomer, axis not shown; (P)) [Example 20, N—((S)-1-((3P)-3-(4-chloro-1-methyl-3-(methylsulfonamido)-1H-indazol-7-yl)-7-(3-(methylsulfonyl)propoxy)-4-oxo-3,4-dihydropyrido[2,3-d]pyrimidin-2-yl)-2-(3,5-difluorophenyl)ethyl)-2-((3bS,4aR)-3-(difluoromethyl)-5,5-difluoro-3b,4,4a,5-tetrahydro-1H-cyclopropa[3,4]cyclopenta[1,2-c]pyrazol-1-yl)acetamide] |  |  | 0.18 | > 500
